Experimental findings from patent US9527830B2 (Merck Sharp & Dohme Corp., priority 2011, dated 2016) are described below.

pIC50: −log10 of the molar value.

The target of one experiment is T1, hROMK (hKir1.1) (Homo sapiens, UniProt P48048).
T1 construct: expressed in transfected cells
T1 sequence (P48048 1-391): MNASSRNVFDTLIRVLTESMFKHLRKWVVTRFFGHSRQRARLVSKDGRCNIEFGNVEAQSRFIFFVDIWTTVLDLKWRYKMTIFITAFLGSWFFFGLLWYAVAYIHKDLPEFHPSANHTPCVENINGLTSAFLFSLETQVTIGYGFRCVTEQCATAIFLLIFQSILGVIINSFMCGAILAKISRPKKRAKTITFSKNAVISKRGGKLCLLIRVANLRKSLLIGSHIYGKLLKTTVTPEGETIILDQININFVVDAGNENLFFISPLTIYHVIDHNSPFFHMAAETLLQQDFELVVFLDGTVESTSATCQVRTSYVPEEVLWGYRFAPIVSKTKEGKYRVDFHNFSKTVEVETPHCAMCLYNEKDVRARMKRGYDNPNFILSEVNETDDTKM
The experiment is described as follows: Thallium Flux Assay (FluxOR, FLIPR-Tetra). Type of experiment: cell-based. The following applies: HEK293 cells stably expressing hROMK; potency ranges. The method, then:
Several assays may be used to measure functional inhibition of the ROMK channel by compounds of the instant invention. One primary assay that can be used is a functional ^86Rb^+ efflux assay that measures the ability of ROMK to permeate ^86Rb^+, in the absence or presence of test compound. Under control conditions, cells loaded with ^86Rb^+ and incubated in Rb^+-free medium display a time-dependent efflux of the isotope, the rate of which depends on number of functional channels. When cells are incubated in the presence of a channel inhibitor, efflux of ^86Rb^+ is prevented in a concentration-dependent manner, and IC50 values of inhibition by compounds can be accurately determined. This assay has been established with cell lines expressing either human, rat or dog ROMK channels, and can operate in 96- or 384-well format. Importantly, the human, rat, and dog ^86Rb^+ efflux assays can be carried out in the presence of up to 100% serum allowing, therefore, an accurate estimation of the effect of protein binding on the inhibitory activity of compounds of interest. Another ROMK functional assay makes use of the ability of thallium to permeate through open ROMK channels and increase the fluorescence of a dye previously loaded into the cells. Under control conditions, cells loaded with dye and exposed to thallium-containing medium display a time-dependent increase in fluorescence, the rate of which depends on number of functional channels. When cells are incubated in the presence of a channel inhibitor, the increase in fluorescence is attenuated in a concentration-dependent manner, and IC50 values of inhibition by compounds can be accurately determined. This assay has been established with cell lines expressing either human, or rat ROMK channels, and operates in 384-well format. Another assay for evaluation of the compounds of the instant invention and for evaluation of mechanism of action of compounds of Formula I relies on the measurement of the electrical current that is generated as potassium permeates through the channel. For these electrophysiological experiments, three different platforms, IonWorks, QPatch, or manual patch clamp, are used, depending on the experimental protocol under consideration. IonWorks operates in a 384-well format and allows accurate determination of IC50 values for inhibitors.
HEK293 cells stably expressing hROMK (hKir1.1) were grown at 37° C. in a 10% CO2 humidified incubator in complete growth media: Dulbecco's Modified Eagle Medium supplemented with non-essential amino acids, Penicillin/Streptomycin/Glutamine, G418 and FBS. At >80% confluency, media was aspirated from the flask and rinsed with 10 ml Calcium/Magnesium-free PBS. 5 ml of 1× trypsin (prepared in Ca/Mg Free PBS) was added to T-225 flask and flask returned to 37° C./CO2 incubator for 2-3 minutes. To dislodge the cell, the side of the flask was gently banged by hand. Cells were completely triturated and then transferred to 25 ml complete media, and centrifuged at 1,500 rpm for 6 min followed by resuspension in complete growth media and cell concentration determined. For typical re-seeding, 4E6 cells/T-225 flask attained >80% confluency in 4 days. Under ideal growth conditions and appropriate tissue culture practices, this cell line was stable for 40-45 passages.
FluxOR™ Kit Components (Invitrogen F10017)
• FluxOR™ Reagent (Component A) • FluxOR™ Assay Buffer (Component B)—10× Concentrate • PowerLoad™ Concentrate (Component C)—100× Concentrate • Probenecid (Component D)—Lyophilized sample was kept at −20° C. Water soluble, 100× after solubilization in 1 ml water. Store at 4° C. • FluxOR™ Chloride-free Buffer (Component E)—5× Concentrate • Potassium sulfate (K2SO4) Concentrate (Component F)—125 mM in water. Stored at 4° C. • Thallium sulfate (Tl2SO4) Concentrate (Component G)—50 mM in water. […]

In another experiment the target is T2, hROMK1 (Kir1.1) (Homo sapiens, UniProt P48048).
T2 construct: expressed in transfected cells
T2 sequence (P48048 1-391): T1 sequence (P48048 1-391)
The experiment is described as follows: ^86Rb^+ Efflux Assay. In kind it is cell-based. Particulars: CHO-DHFR- cells stably expressing hROMK1; potency ranges.

By pIC50 is commonly meant the negative decadic logarithm of the IC50, by convention in mol/L. A low value points to a high IC50. In the case of `O=C1OCc2cc(SC3CCN(CC(O)c4ccc5c(c4)COC5=O)CC3)ccc21` (stereo not drawn) [Example 85, 5-({1-[2-hydroxy-2-(1-oxo-1,3-dihydro-2-benzofuran-5-yl)ethyl]piperidin-4-yl}sulfanyl)-2-benzofuran-1(3H)-one], the pIC50 was at least 6.70 against hROMK (hKir1.1) and at least 6.30 on hROMK1 (Kir1.1).
The matching figures for `Cc1c(C(O)CC2CCN(C[C@H](O)c3ccc4c(c3C)COC4=O)CC2)ccc2c1COC2=O` (stereo partly drawn) [Example 86, 5-[(1R)-1-Hydroxy-2-{4-[2-hydroxy-2-(4-methyl-1-oxo-1,3-dihydro-2-benzofuran-5-yl)ethyl]piperidin-1-yl}ethyl]-4-methyl-2-benzofuran-1(3H)-one]: at least 7.00 and at least 6.70.
The matching figures for `Cc1c(CC(O)C2CCN(C[C@H](O)c3ccc4c(c3C)COC4=O)CC2)ccc2c1COC2=O` (stereo partly drawn) [Example 87, 5-[(1R)-1-Hydroxy-2-{4-[1-hydroxy-2-(4-methyl-1-oxo-1,3-dihydro-2-benzofuran-5-yl)ethyl]piperidin-1-yl}ethyl]-4-methyl-2-benzofuran-1(3H)-one]: at least 7.00 and at least 6.70.
With `Cc1c(CCN2CCC(NCc3ccc4c(c3)COC4=O)CC2)ccc2c1COC2=O` [Example 88, 4-Methyl-5-[2-(4-{[(1-oxo-1,3-dihydro-2-benzofuran-5-yl)methyl]amino}piperidin-1-yl)ethyl]-2-benzofuran-1(3H)-one], the pIC50 was at least 7.00 at hROMK (hKir1.1) and at least 6.70 against hROMK1 (Kir1.1).
Consider `Cc1c(CCN2CCC(NCc3ccc4nonc4c3)CC2)ccc2c1COC2=O` [Example 89, 5-(2-{4-[(2,1,3-Benzoxadiazol-5-ylmethyl)amino]piperidin-1-yl}ethyl)-4-methyl-2-benzofuran-1(3H)-one], for which the figures for the pIC50 against hROMK (hKir1.1) and against hROMK1 (Kir1.1) were at least 6.70 and at least 6.30, respectively.
For the molecule `Cc1c(CCN2CCC(NCc3ccc(C#N)c(F)c3)CC2)ccc2c1COC2=O` [Example 90, 2-Fluoro-4-[({1-[2-(4-methyl-1-oxo-1,3-dihydro-2-benzofuran-5-yl)ethyl]piperidin-4-yl}amino)methyl]benzonitrile], the negative-log IC50 (pIC50) is at least 6.70 on hROMK (hKir1.1) and at least 6.30 at hROMK1 (Kir1.1).
Molecule `Cc1c([C@@H](O)CN2CCC(C[S+]([O-])c3ccc4c(c3)CCOC4=O)CC2)ccc2c1COC2=O` (stereo partly drawn) [Example 104, 6-[({1-[(2R)-2-Hydroxy-2-(4-methyl-1-oxo-1,3-dihydro-2-benzofuran-5-yl)ethyl]piperidin-4-yl}methyl)sulfinyl]-3,4-dihydro-1H-isochromen-1-one] had a pIC50 against hROMK (hKir1.1) of at least 7.00.
`Cc1c([C@@H](O)CN2CC3C(COc4ccc(C#N)cn4)C3C2)ccc2c1COC2=O` (stereo partly drawn) [Example 106, 6-({3-[(2R)-2-Hydroxy-2-(4-methyl-1-oxo-1,3-dihydro-2-benzofuran-5-yl)ethyl]-3-azabicyclo[3.1.0]hex-6-yl}methoxy)pyridine-3-carbonitrile]: on hROMK (hKir1.1), the pIC50 is at least 7.00.
Still for that read-out and setting: for `Cc1c([C@@H](O)CN2CCC(C)(COc3ccc(C#N)cn3)CC2)ccc2c1COC2=O` [Example 107] the value was at least 7.00.
On the same count and under the same terms, for `Cc1c([C@@H](O)CN2CCC(CS(=O)(=O)c3ccc4c(c3)CCOC4=O)CC2)ccc2c1COC2=O` [Example 109, 6-[({1-[(2R)-2-Hydroxy-2-(4-methyl-1-oxo-1,3-dihydro-2-benzofuran-5-yl)ethyl]piperidin-4-yl}methyl)sulfonyl]-3,4-dihydro-1H-isochromen-1-one] the value was at least 7.00; for `Cc1c([C@@H](O)CN2CCC(Nc3ccc(C#N)cn3)CC2)ccc2c1COC2=O` [Example 111, (R)-6-(1-(2-Hydroxy-2-(4-methyl-1-oxo-1,3-dihydroisobenzofuran-5-yl)ethyl)piperidin-4-ylamino)nicotinonitrile], at least 7.00.
Same read-out and setting: under `Cc1c([C@@H](O)CN2[C@@H]3CC[C@H]2CC(Nc2ccc(C#N)cn2)C3)ccc2c1COC2=O` (stereo partly drawn) [Example 112, 6-((1R,5S)-8-((R)-2-Hydroxy-2-(4-methyl-1-oxo-1,3-dihydroisobenzofuran-5-yl)ethyl)-8-azabicyclo[3.2.1]octan-3-ylamino)nicotinonitrile] stands at least 7.00.
